{
  "source": "patent EP0935964A1",
  "about": "“Pharmaceutical compositions containing NSAIDs and piperine” (PANACEA BIOTEC LIMITED, priority 1998, dated 1999)",
  "key": {"[1]": {"conditions": "formulations containing Piperine compared with those which did not contain Piperine; cited from earlier work"}, "[2]": {"assay": "Plasma levels of Nimesulide in rats after oral administration of the compositions (Experiment I, HPLC)", "type": "in vivo, albino rats", "protocol": "The rats were housed 5 per cage with food and water provided ad libidum. On the day of experimentation the rats were randomised into ten batches of 5 rats each. Four groups were formed. […] Group II consisted of four batches of five rats each. […] Rats of batch I from Group II were sacrificed 60 minutes post treatment after Chloroform anaesthesia. […] Blood was collected from the rats from the ventricle into heparinised tubes. Group III consisted of one batch of 5 rats, which received only Piperine at a dose level of 1.0mg/kg body wt. […] Blood was collected from the rats from the ventricle into heparinised tubes. Group IV consisted of 4 batches of 5 rats each. […] Rats of batch 1 from Group IV were sacrificed 60 minutes post treatment after Chloroform anaesthesia. […] Blood was collected from the rats from the ventricle into heparinised tubes. The blood samples were centrifuged at 3700 rpm and the plasma separated. […] Extracted benzene was evaporated in a water bath at 95°C and reconstituted with 100 µl of mobile phase and 10 µl was injected into the HPLC. Waters HPLC fitted with C18 µ Bondapack was used along with Waters UV-Vis detector (254nm). […] Unpaired student T test was applied on the data. Level of significance was fixed at p < 0.05."}, "[3]": {"system": "acetic acid induced writhing", "conditions": "mice, n = 8, Nimesulide 10mg/kg", "protocol": "Pharmacokinetic studies were also performed in rats. […] The study design for acetic acid induced writhing in mice was as follows : Table II"}, "[4]": {"conditions": "rats, oral, Nimesulide 10 mg/kg (with Piperine 10mg/kg in the combination), n = 5", "experimental": "The single test point pharmacokinetic studies were performed in two groups of rats. […] Rats were sacrificed at 90 minutes. post treatment and blood samples were analysed by HPLC."}, "[5]": {"conditions": "in vivo; cited from earlier work"}, "[6]": {"system": "plasma proteins", "conditions": "cited from earlier work"}, "[7]": {"conditions": "cited from earlier work"}, "[8]": {"conditions": "cited from earlier work", "remark": "listed apart in the source"}},
  "note": "Like-named read-outs stand apart in the source and are kept apart here.",
  "data": [
    {"smiles": "NC(=O)c1cnccn1", "note": "[Pyrazinamide]", "values": [
      {"measurement": "mean increase in AUC", "setting": "[1]", "result": 36, "unit": "%"}
    ]},
    {"smiles": "CS(=O)(=O)Nc1ccc([N+](=O)[O-])cc1Oc1ccccc1", "note": "[Nimesulide, N-(4-nitro, 2-phenoxyphenyl) methanesulfonamide]", "values": [
      {"measurement": "Concentration of the drug in plasma", "setting": "[2]; Nimesulide alone 1.8 mg/kg, 240 min post treatment", "result": "4.6 ± 1.4", "unit": "kg/mL"},
      {"measurement": "Plasma levels of Nimesulide", "setting": "[2]; oral suspension, Nimesulide 1.8 mg/kg (with Piperine 1.0 mg/kg in the combination), 60 min. post treatment", "result": "5800 ± 1700", "unit": "µg/mL"},
      {"measurement": "Plasma levels of Nimesulide", "setting": "[2]; oral suspension, Nimesulide 1.8 mg/kg (with Piperine 1.0 mg/kg in the combination), 120 min. post treatment", "result": "7900 ± 2300", "unit": "µg/mL"},
      {"measurement": "Plasma levels of Nimesulide", "setting": "[2]; oral suspension, Nimesulide 1.8 mg/kg (with Piperine 1.0 mg/kg in the combination), 240 min. post treatment", "result": "4600 ± 1400", "unit": "µg/mL"},
      {"measurement": "Plasma levels of Nimesulide", "setting": "[2]; oral suspension, Nimesulide 1.8 mg/kg (with Piperine 1.0 mg/kg in the combination), 360 min. post treatment", "result": "2200 ± 1100", "unit": "µg/mL"},
      {"measurement": "% PROTECTION", "setting": "[3]", "result": 54, "unit": "%"},
      {"measurement": "Plasma concentration (90 min post treatment)", "setting": "[4]", "result": 8818, "unit": "µg/mL"},
      {"measurement": "dose excreted unchanged in the urine", "setting": "[5]", "result": "1-3%"},
      {"measurement": "bound to plasma proteins", "setting": "[6]", "result": 99, "unit": "%"}
    ]},
    {"smiles": "O=C(/C=C/C=C/c1ccc2c(c1)OCO2)N1CCCCC1", "note": "[Piperine, (E, E) 1-[5-(1,3-benzodioxyl-5-yl)-1-oxo-2,4-pentadenyl] piperidine]", "values": [
      {"measurement": "Plasma levels of Nimesulide", "setting": "[2]; only Piperine 1.0 mg/kg, no Nimesulide, column 120 min.", "result": "Nil"},
      {"measurement": "pKa", "setting": "[7]", "result": 12.22},
      {"measurement": "solubility", "setting": "[8]; in benzene, chloroform, ether, ethyl acetate, dichloromethane, alcohol, acetic acid", "result": "soluble"},
      {"measurement": "solubility", "setting": "[8]; in water, pet. ether", "result": "insoluble"}
    ]},
    {"smiles": "CO[C@H]1/C=C/O[C@@]2(C)Oc3c(C)c(O)c4c(O)c(c(/C=N/N5CCN(C)CC5)c(O)c4c3C2=O)NC(=O)/C(C)=C\\C=C\\[C@H](C)[C@H](O)[C@@H](C)[C@@H](O)[C@@H](C)[C@H](OC(C)=O)[C@@H]1C", "note": "[Rifampicin]", "values": [
      {"measurement": "mean increase in AUC", "setting": "[1]", "result": 37.6, "unit": "%"}
    ]},
    {"smiles": "NNC(=O)c1ccncc1", "note": "[Isoniazid]", "values": [
      {"measurement": "mean increase in AUC", "setting": "[1]", "result": 131, "unit": "%"}
    ]}
  ]
}
